Measurements: patent US20150359798A1, “PIPERAZINYL DERIVATIVE REDUCES HIGH-FAT DIET-INDUCED ACCUMULATION OF FAT IN THE LIVERS, […]” (priority 2011, published 2015)
Counter-ions that a name gives are not always drawn. One block for each compound: values may come before it.

What was measured:
[1] = tested on: PDE-5A; experiment: Table 4 PDE-5A (% of control); assay type: cell-based; settings: control group = 100 (%)
[2] = tested on: ROCKII; experiment: Table 4 ROCKII (% of control); assay type: cell-based; settings: control group = 100 (%)
[3] = tested on: ROCK II; experiment: ROCK II expression in HepG2 cells; assay type: cell-based; settings: HepG2; for RhoA/ROCK II expression: exogenous GGPP or FPP alone
Protocol: (§1) HepG2 cells were treated with various concentrations of drugs for 24 hours. Reactions were terminated by washing twice with cold PBS, and the cells were then harvested, Proteins in the whole-cell lysate were homogenized in an ice-cold lysis buffer and a protease inhibitor (Sigma-Aldrich, St. Louis, Mo., U.S.A.). The homogenate was centrifuged at 90, 000 g for 15 minutes at 4° C., and supernatant was recovered as the total cellular protein. Cytosolic and membrane fractions of HepG2 cells were prepared using a. CNM (Cytosol Nuclear Membrane) compartment protein extraction kit (BioChain Institute Inc., Hayward, Calif., U.S.A.) according to the manufacturer's instructions. All of the fractionated protein solutions were stored at -80° C. until analysis. To measure the expression levels of proteins by drugs, the total cell protein was extracted after incubation with treatments for 24 hours and then Western blotting analysis was performed as described previously.

[4] = tested on: PPARγ; experiment: PPARγ expression in HepG2 cells; assay type: cell-based; settings: HepG2; for expression of PPARγ: FPP or GGPP (10 μM) alone
Protocol: as §1, with “−80°” for “-80°”

[5] = tested on: ABCA1; experiment: ABCA1 expression in HepG2 cells; assay type: cell-based; settings: HepG2; for expression of ABCA1: FPP or GGPP (10 μM) alone
Protocol: as §1, with “−80°” for “-80°”

[6] = tested on: Rho-kinase; experiment: Table 3 Rho-kinase (% of control); assay type: cell-based; settings: 10 μM; control group = 100 (%)
[7] = tested on: HMG CoA reductase; experiment: HMG CoA reductase expression in HepG2 cells (Western blotting); assay type: cell-based; settings: HepG2, mevalonate 60, 80, 100 μM
Protocol: The HepG2 hepatoma cell line was purchased from the American Type Culture Collection (ATCC; Manassas, Va., U.S.A.). Cells were cultured in DMEM. The culture media was supplemented with 5% heat-Inactivated FBS, penicillin (100 U/mL) and streptomycin (100 μg/mL). Cells were grown in a humidified atmosphere containing 5% CO2 at 37° C., in which the oxygen tension in the incubator was held at 140 mmHg (20% O2, v/v; normoxic conditions).
as §1, with “−80°” for “-80°”

[8] = tested on: mice fed with HFD; experiment: HFD-fed mice, 8 weeks, gavage: serum/liver lipids, body weight, food intake; assay type: in vivo; settings: HFD mice, 8 weeks, 5 mg/kg
Protocol: In the 8 week experiment, C57BL/6J male mice (21-22 g), after fasting, were fed a HFD as a model of hyperlipidemia for 8 weeks. During the 2 month experiments, mice fasted for one night before the experiment was changed from a standard diet (STD) to a HFD and then the mice were randomly divided into 5 groups, including 2 control and 3 treatment groups. Six mice were used in each group. […] Liver from the protection group supplemented with KMUP-1 HCl (1 mg/kg/day) were used to determine the HMG CoA reductase expression.
Within 2 months, the 3 day food intake average for each animal was measured. The weight gain and plasma lipid levels of each group were determined and compared to the non-treatment control group. Mouse blood was collected during the daytime by cardiac puncture followed by centrifugation at 90 g (Benchtop Centrifuge, U.S.A.) to separate the serum, and frozen at −80° C., for biochemical analysis using a Hitachi Clinical Analyzer 7070 (Hitachi High-Technologies Co. Tokyo, Japan). Agents used in the assays were Obtained from Merck & Co. (Kenilworth, N.J., U.S.A.). Triglyceride (TG), total cholesterol, HDL cholesterol and LDL cholesterol in mouse serum were measured by methods used in the clinic. To measure the hepatic TG, isolated liver were cut into small chips.

[9] = tested on: eNOS; experiment: Table 4 eNOS (% of control); assay type: cell-based; settings: control group = 100 (%)
[10] = tested on: PPAR-γ; experiment: Table 3 PPAR-γ (% of control); assay type: cell-based; settings: 10 μM; control group = 100 (%)
[11] = tested on: eNOS; experiment: Table 3 eNOS (% of control); assay type: cell-based; settings: 10 μM; control group = 100 (%)
[12] = tested on: p-HSL; experiment: Table 3 p-HSL (% of control); assay type: cell-based; settings: 10 μM; control group = 100 (%)
[13] = simvastatin, KMUP-1, Y27632 10^−5M, C3 exoenzyme

Compound: COc1ccccc1N1CCN(CCn2cnc3c2c(=O)n(C)c(=O)n3C)CC1 [KMUP-2 HCl]
PDE-5A [1]: 68.8 ± 5.3%
ROCKII [2]: 40.8 ± 3.7%

Compound: CC(C)=CCC/C(C)=C/CC/C(C)=C/CC/C(C)=C/COP(=O)(O)OP(=O)(O)O [GGPP, geranylgeranyl pyrophosphate, reference compound]
RhoA/ROCK II expression [3]: increased
expression of PPARγ [4]: suppressed
expression of ABCA1 [5]: suppressed

Rho-kinase [6]: 81.9 ± 8.2%
Compound: COc1ccccc1N1CCN(CCn2cnc3c2c(=O)n(C)c(=O)n3C)CC1 [KMUP-2, 7-[2-[4-(2-methoxybenzene)piperazinyl]ethyl]-1,3-dimethylxanthine]

Compound: Nc1nc2c(nc(Sc3ccc(Cl)cc3)n2[C@@H]2O[C@@H]3CO[P@@](=O)(S)O[C@H]3[C@H]2O)c(=O)[nH]1 [Rp-8-pCPT-cGMPS, 8-(p-chloro-phenylthio)guanosine-3,5-monophosphorothioate]
ROCK II expression ([3]; 10 μM cGMP antagonist): increased

Compound: CC(O)(CCO)CC(=O)O (stereo not shown) [mevalonate, reference compound]
HMG CoA reductase expression [7]: concentration-dependently reduced

Compound: CCC(C)(C)C(=O)O[C@H]1C[C@@H](C)C=C2C=C[C@H](C)[C@H](CC[C@@H]3C[C@@H](O)CC(=O)O3)[C@H]21 [simvastatin, reference compound]
HDL cholesterol [8]: 103.2 ± 2.5 mg/dL
LDL cholesterol [8]: 15.3 ± 1.3 mg/dL
TG in serum [8]: 82.7 ± 6.3 mg/dL
TG of liver [8]: 34.5 ± 2.** mg/dl
Tot. chol. (total cholesterol) [8]: 133.7 ± 4.3 mg/dL
final BW (Body weight) [8]: 23.9 ± 0.9 g

Compound: Cn1c(=O)c2c(ncn2CCN2CCN(c3ccccc3[N+](=O)[O-])CC2)n(C)c1=O [KMUP-4 HCl]
eNOS [9]: 135.24 ± 7.5%
PDE-5A [1]: 73.4 ± 3.4%
ROCKII [2]: 37.6 ± 2.8%

Compound: Cn1c(=O)c2c(ncn2CCN2CCN(c3ccccc3[N+](=O)[O-])CC2)n(C)c1=O [KMUP-4, 7-[2-[4-(2-nitrobenzene)piperazinyl]ethyl]-1,3-dimethylxanthine]
PPAR-γ [10]: 143.7 ± 11.3%
eNOS [11]: 125.6 ± 13.6%
Rho-kinase [6]: 83.7 ± 7.5%
p-HSL [12]: 136.5 ± 12.6%

Compound: Cl.Cn1c(=O)c2c(ncn2CCN2CCN(c3ccc([N+](=O)[O-])cc3)CC2)n(C)c1=O [KMUP-3 HCl, 7-[2-[4-(4-nitrobenzene)piperazinyl]ethyl]-1,3-dimethyl xanthine HCl complex]
eNOS [9]: 148.31 ± 7.5%
PDE-5A [1]: 63.6 ± 5.2%
ROCKII [2]: 44.5 ± 2.9%

Compound: C[C@@H](N)[C@H]1CC[C@H](C(=O)Nc2ccncc2)CC1 [Y27632, reference compound]
ROCK II expression ([3]; C3 exoenzyme 5 μg/ml, Y27632 10 μM): reduced
PPARγ expression (FIG. 24C) [4, 13]: increased
ABCA1 expression (FIG. 24D) [5, 13]: increased

Compound: Cn1c(=O)c2c(ncn2CCN2CCN(c3ccccc3[N+](=O)[O-])CC2)n(C)c1=O [KMUP-3, 7-[2-[4-(2-nitrobenzene)piperazinyl]ethyl]-1,3-dimethylxanthine]
PPAR-γ [10]: 140.8 ± 15.7%
eNOS [11]: 131.5 ± 13.7%
Rho-kinase [6]: 79.4 ± 6.9%
p-HSL [12]: 138.2 ± 14.4%

Compound: CC(C)=CCC/C(C)=C/CC/C(C)=C/COP(=O)(O)OP(=O)(O)O [FPP, farnesyl pyrophosphate, reference compound]
RhoA/ROCK II expression [3]: increased
expression of PPARγ [4]: suppressed
expression of ABCA1 [5]: suppressed
